Measured values taken from patent US7732200B2, “Materials and methods for nerve grafting, selection of nerve grafts, and in vitro nerve tissue culture” (University of Florida Research Foundation, Inc., priority 2001, dated 2010).

Columns and labels:
[1] = test system: CSPG; assay: CSPG neoepitope immunolabeling of chondroitinase-treated human nerve segments
Excerpt: Many of the experiments described in the examples above performed using rat nerves also have been replicated using human nerve. Except where otherwise indicated, the procedures described in Examples 1 and 2 using rat nerve were also followed in Examples 6 and 7 using human nerve. Human sural and tibial nerves were obtained fresh from surgical leg amputation.
Human nerves were first examined to determine if their content of CSPG and laminin was similar to that observed in rat nerves. […] Human nerves stained for CSPG neoepitope and laminin are shown, respectively, in FIGS. 9A and 9B.

[2] = test system: rat sciatic nerve; assay: Human-to-rat acellular nerve xenograft model (GAP-43 profiles); assay type: in vivo; details: acellular human nerve fascicle grafts in rat, 8 days, 2 rats
Experimental: In the following experiments, the hypothesis that chondroitinase treatment improves nerve regeneration through acellular human nerve grafts in a rat xenograft model was tested. Subunits (individual fascicles) taken from human nerves were treated en bloc with vehicle or chondroitinase ABC. Ten-mm interpositional nerve grafts were joined to the rat host sciatic nerve by epineurial neurorrhaphy reinforced with fibrin glue. Each of 2 host rats received bilateral grafts, one vehicle-treated and one chondroitinase-treated graft. Regeneration was initially examined after 8 days. Axonal growth was assessed at specified spatial intervals within the graft by scoring GAP-43-immunopositive profiles in transverse sections.

[3] = test system: sciatic nerve; assay: Axonal regeneration into acellular interpositional nerve grafts (GAP-43 profiles); assay type: in vivo, rat
Excerpt: (§1) Preparation of acellular nerve grafts treated with chondroitinase: Adult (180-200 g) female SPRAGUE DAWLEY rats (HARLAN, Indianapolis, Ind.) were used as nerve donors and recipient hosts. Donor rats were anesthetized with halothane and decapitated. Sciatic nerves were exposed through a gluteal muscle-splitting incision and isolated free of underlying fascia. A 15-mm nerve segment was excised rostral to the bifurcation into common peroneal and tibial nerves. The segments were rinsed with cold sterile Ringer's solution, stabilized by pinning the ends to a thin plastic support, and transferred to a cryogenic vial. The vials were submerged in liquid nitrogen for 2 minutes and then transferred to a 37° C. water bath for 2 minutes. This freeze/thaw cycle was repeated, yielding acellular nerve grafts that were then stored in liquid nitrogen. On the day before grafting, the nerve grafts were warmed to room temperature and incubated in 100 μl phosphate buffered saline pH 7.4 (PBS) containing 2 units/ml chondroitinase ABC (SIGMA, St. Louis, Mo.) or in PBS (vehicle) only for 16 hours at 37° C. The grafts were rinsed twice with Ringer's and kept on ice prior to use. The chondroitinase ABC preparation was highly purified and stated by the manufacturer to be essentially free of protease activity.
Interpositional nerve grafting for chondroitinase experiments. Twelve rats received bilateral acellular nerve grafts, one chondroitinase-treated and one vehicle-treated graft. Host rats were deeply anesthetized using xylazine (15 mg/kg, i.m.) and ketamine (110 mg/kg, i.p.). The sciatic nerve was exposed and supported by a plastic insert placed between the nerve and underlying tissue. […]
The main grafts were sectioned serially on the transverse plane in recorded measure to assess the extent of axonal growth by microscopy. […] GAP-43-positive axon profiles were scored using IMAGE-PRO PLUS software (MEDIA CYBERNETICS, Silver Springs, Md.).
(§2) Immunocytochemistry. Axonal regeneration was assessed by GAP-43 immunofluorescence and digital image analysis. […]

[4] = test system: CSPG; assay: CSPG neoepitope (Ab1918) and laminin immunolabeling of acellular nerve segments treated en bloc; details: acellular rat sciatic nerve segments bathed en bloc 16 h, 2 units/ml
Excerpt: as §1, with “The chondroitinase ABC preparation was highly purified and stated by the manufacturer to be essentially free of protease activity.” left out
as §2

chondroitinase ABC
CSPG side chain degradation by neoepitope labeling [1]: effectively degraded
average number of axons (GAP-43-immunopositive profiles) entering grafts vs control grafts [2]: more than three-fold greater
axonal penetration vs control at 0.3 mm from the host-graft interface ([3]; 4-day grafts, 3 animals): five-fold greater
average number of axons (GAP-43-immunopositive profiles) entering grafts vs control grafts ([3]; 8-day grafts, 9 rats with bilateral grafts): more than three-fold greater
propensity of axons to grow within basal laminae ([3]; 8-day grafts, GAP-43 and laminin double label): unaltered
CSPG degradation by Ab1918 neoepitope immunostaining [4]: thoroughly degraded CSPG side-chains
